Laboratory results as given in the kinase profiling compilation of Christmann-Franck et al. (2016).

Legend:
Assay in all cases: radiometric filter-binding kinase assay, Kinase HotSpot
Details in all cases: compound 0.5 µM; ATP 10 µM
[1] = molecular target: ACVR1B (human) (UniProt P36896)
[2] = molecular target: AKT2 (human) (UniProt P31751)
[3] = molecular target: AURKC (human) (UniProt Q9UQB9)
[4] = molecular target: CDK2 CCNA2 (human) (UniProt P24941+P20248)
[5] = molecular target: CDK5 CDK5R1 p35 (human) (UniProt Q00535+Q15078)
[6] = molecular target: CDK6 CCND1 (human) (UniProt Q00534+P24385)
[7] = molecular target: CDK7 CCNH MNAT1 (human) (UniProt P50613+P51948+P51946)
[8] = molecular target: CLK1 (human) (UniProt P49759)
[9] = molecular target: CSF1R (human) (UniProt P07333)
[10] = molecular target: CSNK1G1 (human) (UniProt Q9HCP0)
[11] = molecular target: DAPK3 (human) (UniProt O43293)
[12] = molecular target: DMPK (human) (UniProt Q09013)
[13] = molecular target: EPHA4 (human) (UniProt P54764)
[14] = molecular target: ERBB4 (human) (UniProt Q15303)
[15] = molecular target: FER (human) (UniProt P16591)
[16] = molecular target: FGFR1 (human) (UniProt P11362)
[17] = molecular target: FLT1 (human) (UniProt P17948)
[18] = molecular target: GRK5 (human) (UniProt P34947)
[19] = molecular target: KIT (human) (UniProt P10721)
[20] = molecular target: LCK (human) (UniProt P06239)
[21] = molecular target: MAP3K3 (human) (UniProt Q99759)
[22] = molecular target: MAP3K8 (human) (UniProt P41279)
[23] = molecular target: MAPK13 (human) (UniProt O15264)
[24] = molecular target: MAPK3 (human) (UniProt P27361)
[25] = molecular target: MINK1 (human) (UniProt Q8N4C8)
[26] = molecular target: MUSK (human) (UniProt O15146)
[27] = molecular target: NEK3 (human) (UniProt P51956)
[28] = molecular target: PAK6 (human) (UniProt Q9NQU5)
[29] = molecular target: PDGFRB (human) (UniProt P09619)
[30] = molecular target: PHKG2 (human) (UniProt P15735)
[31] = molecular target: PIM2 (human) (UniProt Q9P1W9)
[32] = molecular target: PLK2 (human) (UniProt Q9NYY3)
[33] = molecular target: PRKCD (human) (UniProt Q05655)
[34] = molecular target: ROCK2 (human) (UniProt O75116)
[35] = molecular target: ROS1 (human) (UniProt P08922)
[36] = molecular target: STK25 (human) (UniProt O00506)
[37] = molecular target: TEC (human) (UniProt P42680)
[38] = molecular target: TEK (human) (UniProt Q02763)
[39] = molecular target: TNK2 (human) (UniProt Q07912)
[40] = molecular target: TYK2 JH1 catalytic (human) (UniProt P29597)
[41] = molecular target: TYRO3 (human) (UniProt Q06418)
[42] = molecular target: ZAP70 (human) (UniProt P43403)
Chain of ZAP70 (human) (P43403 whole entry, looked up): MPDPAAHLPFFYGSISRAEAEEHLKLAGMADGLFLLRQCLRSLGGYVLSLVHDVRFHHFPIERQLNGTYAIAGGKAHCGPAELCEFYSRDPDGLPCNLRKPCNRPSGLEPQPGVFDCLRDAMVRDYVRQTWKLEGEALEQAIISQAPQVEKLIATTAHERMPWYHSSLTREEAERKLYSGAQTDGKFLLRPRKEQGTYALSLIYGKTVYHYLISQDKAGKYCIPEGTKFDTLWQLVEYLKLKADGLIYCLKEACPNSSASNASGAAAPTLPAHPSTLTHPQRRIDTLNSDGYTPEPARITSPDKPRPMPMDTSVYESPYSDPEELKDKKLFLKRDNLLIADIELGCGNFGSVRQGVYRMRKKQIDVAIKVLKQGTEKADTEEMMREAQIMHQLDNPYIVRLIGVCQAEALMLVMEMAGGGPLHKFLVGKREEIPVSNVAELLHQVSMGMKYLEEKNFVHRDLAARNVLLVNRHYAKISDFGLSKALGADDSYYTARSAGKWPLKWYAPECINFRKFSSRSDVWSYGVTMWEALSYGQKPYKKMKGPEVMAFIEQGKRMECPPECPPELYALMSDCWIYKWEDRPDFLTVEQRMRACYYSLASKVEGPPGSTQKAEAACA

Chain of PDGFRB (human) (P09619 whole entry, looked up): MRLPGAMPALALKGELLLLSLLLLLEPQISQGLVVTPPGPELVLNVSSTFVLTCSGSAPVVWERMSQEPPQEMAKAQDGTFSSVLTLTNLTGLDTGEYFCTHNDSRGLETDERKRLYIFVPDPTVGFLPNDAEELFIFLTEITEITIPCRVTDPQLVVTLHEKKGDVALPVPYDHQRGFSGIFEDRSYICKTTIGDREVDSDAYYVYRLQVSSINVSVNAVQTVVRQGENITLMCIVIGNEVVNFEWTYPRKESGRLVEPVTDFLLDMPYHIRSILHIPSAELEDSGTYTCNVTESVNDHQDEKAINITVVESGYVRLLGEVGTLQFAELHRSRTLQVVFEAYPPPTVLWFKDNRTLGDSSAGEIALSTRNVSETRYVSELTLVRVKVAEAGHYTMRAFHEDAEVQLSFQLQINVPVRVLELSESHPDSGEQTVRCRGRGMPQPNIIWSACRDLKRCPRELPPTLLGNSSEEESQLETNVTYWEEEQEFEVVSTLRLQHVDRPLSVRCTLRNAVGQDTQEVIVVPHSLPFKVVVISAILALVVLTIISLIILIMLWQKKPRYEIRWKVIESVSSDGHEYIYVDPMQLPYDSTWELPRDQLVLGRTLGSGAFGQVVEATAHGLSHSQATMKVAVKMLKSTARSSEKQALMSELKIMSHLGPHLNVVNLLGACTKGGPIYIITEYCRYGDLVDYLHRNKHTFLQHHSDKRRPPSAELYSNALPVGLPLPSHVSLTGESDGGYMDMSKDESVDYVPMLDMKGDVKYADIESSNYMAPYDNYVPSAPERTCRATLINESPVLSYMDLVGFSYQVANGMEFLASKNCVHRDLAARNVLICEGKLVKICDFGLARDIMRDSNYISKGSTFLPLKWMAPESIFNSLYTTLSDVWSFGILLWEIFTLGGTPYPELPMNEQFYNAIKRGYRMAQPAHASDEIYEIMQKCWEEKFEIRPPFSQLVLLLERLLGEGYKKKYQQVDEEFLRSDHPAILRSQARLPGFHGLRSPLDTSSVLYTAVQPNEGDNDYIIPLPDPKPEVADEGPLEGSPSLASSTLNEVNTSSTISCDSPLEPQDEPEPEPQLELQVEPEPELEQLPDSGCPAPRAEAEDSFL
Chain of PRKCD (human) (Q05655 whole entry, looked up): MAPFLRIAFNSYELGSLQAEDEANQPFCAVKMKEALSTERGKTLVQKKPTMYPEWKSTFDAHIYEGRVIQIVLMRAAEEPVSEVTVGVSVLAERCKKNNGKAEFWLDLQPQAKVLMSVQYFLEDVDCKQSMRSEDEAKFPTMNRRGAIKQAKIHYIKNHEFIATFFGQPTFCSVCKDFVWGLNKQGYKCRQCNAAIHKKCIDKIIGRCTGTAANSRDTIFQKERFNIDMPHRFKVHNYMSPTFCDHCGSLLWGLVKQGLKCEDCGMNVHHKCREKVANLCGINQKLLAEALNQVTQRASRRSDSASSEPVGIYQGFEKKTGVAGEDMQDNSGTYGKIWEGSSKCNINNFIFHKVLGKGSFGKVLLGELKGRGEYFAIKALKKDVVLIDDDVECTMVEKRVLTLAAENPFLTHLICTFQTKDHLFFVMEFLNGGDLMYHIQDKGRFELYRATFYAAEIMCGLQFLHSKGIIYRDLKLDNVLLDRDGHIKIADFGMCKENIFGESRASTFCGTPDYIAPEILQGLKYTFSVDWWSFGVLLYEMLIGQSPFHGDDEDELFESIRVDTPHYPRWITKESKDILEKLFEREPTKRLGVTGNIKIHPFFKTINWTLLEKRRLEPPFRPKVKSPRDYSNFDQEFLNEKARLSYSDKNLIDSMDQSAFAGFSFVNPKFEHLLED
Chain of AKT2 (human) (P31751 whole entry, looked up): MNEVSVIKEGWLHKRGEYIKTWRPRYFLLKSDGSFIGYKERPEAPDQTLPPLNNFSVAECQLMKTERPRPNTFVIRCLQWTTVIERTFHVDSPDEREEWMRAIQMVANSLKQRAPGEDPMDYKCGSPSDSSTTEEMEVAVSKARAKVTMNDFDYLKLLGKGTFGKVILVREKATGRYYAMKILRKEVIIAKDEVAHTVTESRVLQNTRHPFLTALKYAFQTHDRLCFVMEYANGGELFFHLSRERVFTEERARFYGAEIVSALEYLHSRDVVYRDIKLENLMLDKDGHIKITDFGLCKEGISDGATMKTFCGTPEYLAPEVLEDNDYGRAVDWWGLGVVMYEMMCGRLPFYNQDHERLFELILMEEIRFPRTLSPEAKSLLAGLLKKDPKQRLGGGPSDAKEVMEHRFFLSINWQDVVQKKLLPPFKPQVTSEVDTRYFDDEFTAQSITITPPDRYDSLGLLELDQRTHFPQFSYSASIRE
Chain of CDK6 CCND1 (human) (P24385 whole entry, looked up): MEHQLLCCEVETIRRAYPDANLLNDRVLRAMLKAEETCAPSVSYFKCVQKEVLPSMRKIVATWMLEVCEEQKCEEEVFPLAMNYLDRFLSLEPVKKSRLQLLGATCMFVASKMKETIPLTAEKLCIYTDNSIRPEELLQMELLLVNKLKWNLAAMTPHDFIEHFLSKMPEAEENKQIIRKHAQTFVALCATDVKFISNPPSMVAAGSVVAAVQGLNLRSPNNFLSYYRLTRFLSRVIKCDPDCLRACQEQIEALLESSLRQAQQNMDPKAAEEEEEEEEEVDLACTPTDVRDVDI
Chain of CDK6 CCND1 (human) (Q00534 whole entry, looked up): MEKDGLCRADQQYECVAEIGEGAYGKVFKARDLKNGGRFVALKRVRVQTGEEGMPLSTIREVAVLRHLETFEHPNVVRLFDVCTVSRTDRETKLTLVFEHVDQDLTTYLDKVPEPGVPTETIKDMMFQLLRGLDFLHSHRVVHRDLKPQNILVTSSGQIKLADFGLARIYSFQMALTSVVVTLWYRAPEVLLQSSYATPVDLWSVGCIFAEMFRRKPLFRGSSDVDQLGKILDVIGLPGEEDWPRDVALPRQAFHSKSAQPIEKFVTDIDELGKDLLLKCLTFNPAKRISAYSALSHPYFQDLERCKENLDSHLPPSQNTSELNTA
Chain of TYK2 JH1 catalytic (human) (P29597 whole entry, looked up): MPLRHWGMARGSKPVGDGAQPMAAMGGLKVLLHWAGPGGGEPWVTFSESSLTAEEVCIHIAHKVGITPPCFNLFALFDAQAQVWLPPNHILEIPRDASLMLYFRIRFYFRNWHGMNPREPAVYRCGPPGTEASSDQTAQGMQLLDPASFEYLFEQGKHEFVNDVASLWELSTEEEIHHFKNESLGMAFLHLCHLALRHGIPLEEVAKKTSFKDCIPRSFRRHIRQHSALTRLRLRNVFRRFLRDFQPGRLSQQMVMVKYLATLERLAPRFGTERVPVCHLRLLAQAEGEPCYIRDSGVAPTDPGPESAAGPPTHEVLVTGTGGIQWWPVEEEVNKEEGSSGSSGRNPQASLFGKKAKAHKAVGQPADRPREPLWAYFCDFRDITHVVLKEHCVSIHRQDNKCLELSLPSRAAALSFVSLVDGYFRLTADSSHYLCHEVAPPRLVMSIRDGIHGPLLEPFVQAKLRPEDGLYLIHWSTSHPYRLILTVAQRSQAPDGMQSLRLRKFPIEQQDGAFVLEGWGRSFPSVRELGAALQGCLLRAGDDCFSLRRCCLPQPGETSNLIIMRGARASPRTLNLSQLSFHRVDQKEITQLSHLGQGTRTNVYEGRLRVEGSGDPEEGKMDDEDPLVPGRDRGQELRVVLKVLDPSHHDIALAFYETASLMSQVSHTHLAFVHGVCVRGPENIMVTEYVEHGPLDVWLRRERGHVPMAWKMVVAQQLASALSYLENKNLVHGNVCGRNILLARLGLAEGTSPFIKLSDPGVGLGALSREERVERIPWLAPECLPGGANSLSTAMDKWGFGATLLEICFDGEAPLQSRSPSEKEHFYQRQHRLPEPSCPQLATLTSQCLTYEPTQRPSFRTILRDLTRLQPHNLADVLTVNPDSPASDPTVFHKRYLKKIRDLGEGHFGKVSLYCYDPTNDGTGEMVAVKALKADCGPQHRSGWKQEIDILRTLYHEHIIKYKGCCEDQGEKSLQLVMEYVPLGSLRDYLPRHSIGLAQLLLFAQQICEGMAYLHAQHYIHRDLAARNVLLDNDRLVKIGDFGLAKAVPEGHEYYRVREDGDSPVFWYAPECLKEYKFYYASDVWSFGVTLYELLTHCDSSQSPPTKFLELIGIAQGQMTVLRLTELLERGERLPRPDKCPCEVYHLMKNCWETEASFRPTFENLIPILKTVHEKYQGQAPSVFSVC
Chain of AURKC (human) (Q9UQB9 whole entry, looked up): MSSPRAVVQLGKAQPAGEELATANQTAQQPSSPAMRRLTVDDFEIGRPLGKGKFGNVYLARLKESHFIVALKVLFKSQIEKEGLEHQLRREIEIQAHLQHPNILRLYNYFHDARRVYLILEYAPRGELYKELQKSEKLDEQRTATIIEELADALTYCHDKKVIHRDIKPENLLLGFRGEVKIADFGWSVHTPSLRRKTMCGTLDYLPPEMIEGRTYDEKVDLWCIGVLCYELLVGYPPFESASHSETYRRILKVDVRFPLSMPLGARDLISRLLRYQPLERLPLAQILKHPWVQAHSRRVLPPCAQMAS

CN([C@@H](Cc1ccc(OS(=O)(=O)c2cccc3cnccc23)cc1)C(=O)N1CCN(c2ccccc2)CC1)S(=O)(=O)c1cccc2cnccc12
residual activity [1]: 98.7%
residual activity [2]: 106%
residual activity [3]: 98.2%
residual activity [4]: 99.8%
residual activity [5]: 99.5%
residual activity [6]: 91.6%
residual activity [7]: 99.4%
residual activity [8]: 97.3%
residual activity [9]: 95.1%
residual activity [10]: 102%
residual activity [11]: 106%
residual activity [12]: 108%
residual activity [13]: 95.4%
residual activity [14]: 103%
residual activity [15]: 100%
residual activity [16]: 103%
residual activity [17]: 86.5%
residual activity [18]: 95.6%
residual activity [19]: 96.3%
residual activity [20]: 97.5%
residual activity [21]: 96.4%
residual activity [22]: 99.3%
residual activity [23]: 102%
residual activity [24]: 90.6%
residual activity [25]: 98.2%
residual activity [26]: 92.7%
residual activity [27]: 99.8%
residual activity [28]: 102%
residual activity [29]: 104%
residual activity [30]: 101%
residual activity [31]: 98.5%
residual activity [32]: 102%
residual activity [33]: 93%
residual activity [34]: 105%
residual activity [35]: 96.5%
residual activity [36]: 98.8%
residual activity [37]: 98.9%
residual activity [38]: 106%
residual activity [39]: 94.8%
residual activity [40]: 110%
residual activity [41]: 101%
residual activity [42]: 99.5%
